Laboratory results from the Deep4Chem optical property database.
Values joined by “and” are separate entries in the source; they are usually repeats but may differ in a detail not shown here. Equal values may be shown once.

Assay: solvent given as SMILES

Which results are given for `CN(C)c1ccc(/C=C/c2cc[n+](Cc3cc(C[n+]4ccc(/C=C/c5ccc(N(C)C)cc5)cc4)cc(C[n+]4ccc(/C=C/c5ccc(N(C)C)cc5)cc4)c3)cc2)cc1`?
absorption maximum (in C1COCCO1): 480 nm; absorption maximum (in CC(C)O): 490 nm; absorption maximum (in CCCCCCCCO): 489 nm; absorption maximum (in CCCCO): 491 nm; absorption maximum (in CCCO): 495 nm; absorption maximum (in CCO): 498 nm; absorption maximum (in CO): 498 nm; absorption maximum (in CS(C)=O): 491 nm; absorption maximum (in ClC(Cl)Cl): 500 nm; absorption maximum (in ClCCl): 500 nm

With `CCCC1=Cc2nc1ccc1[nH]c(cc1CCC)c1nc(c(OC)cc3[nH]c2cc3CCC)C(CCC)=C1` as the molecule, how does the absorption maximum (in Cc1ccccc1) read?
The absorption maximum was 682 nm.

With `CCCCCCCCOc1cc(/C=C/c2ccncc2)c(OCCCCCCCC)cc1/C=C/c1ccncc1` as the molecule, how does the absorption maximum (in ClCCl) read?
The absorption maximum was 398 nm.

For `CCCCCCc1cc2/c(=C(\C#N)C(=O)OC)s/c(=c3/s/c(=C(/C#N)C(=O)OC)c4cc(CCCCCC)sc34)c2s1`, which absorption maximum (in Cc1ccccc1) is on record?
Its absorption maximum is 580 nm.

For `c1ccc2c(c1)ccc1c3ccccc3ccc21`, which absorption maximum (in ClCCl) is on record?
The absorption maximum was 322 nm.

With `CN(C)c1ccc(C#Cc2cc(C#Cc3ccc(N(C)C)cc3)c3ccc4c(C#Cc5ccc(C(F)(F)F)cc5)cc(C#Cc5ccc(N(C)C)cc5)c5ccc2c3c54)cc1` as the molecule, how does the absorption maximum (in ClCCl) read?
The absorption maximum was 506 nm.

For `CCn1c(-c2ccc(-c3ccc(-c4ccc(-c5n(CC)c6ccccc6[n+]5CC)cc4)cc3)cc2)[n+](CC)c2ccccc21`, which absorption maximum (in O) is on record?
Its absorption maximum is 305 nm.

Which absorption maximum (in ClCCl) does the source give for `Cc1cc(-c2ccc(N(c3ccccc3)c3ccccc3)cc2)c2nsnc2c1-c1ccc(C(C)(C)C)cc1` here?
Its absorption maximum is 418 nm.

For `Oc1ccccc1-c1nc(-c2ccccc2)c2ccccn12`, which absorption maximum (in C1CCCCC1) is on record?
Its absorption maximum is 340 nm.

And the absorption maximum (in CC#N)?
Its absorption maximum is 343 nm.

And the absorption maximum (in CO)?
The absorption maximum was 299 nm.

And the absorption maximum (in ClCCl)?
The absorption maximum was 345 nm.

What about the absorption maximum (in O) of the same molecule?
Its absorption maximum is 299 nm.

Which absorption maximum (in ClCCl) does the source give for `CCCCN1C(=O)c2cc(Oc3ccc(C(C)(C)C)cc3)c3c4c(Oc5ccc(C(C)(C)C)cc5)cc5c(=O)[nH]/c(=C\c6ccccn6)c6cc(Oc7ccc(C(C)(C)C)cc7)c(c7c(Oc8ccc(C(C)(C)C)cc8)cc(c2c37)C1=O)c4c56` here?
Its absorption maximum is 615 nm.

Which absorption maximum (in Cc1ccccc1) does the source give for `N#Cc1ccc(N2c3ccccc3C(c3ccccc3)(c3ccccc3)c3ccccc32)cc1` here?
The absorption maximum was 352 nm.

For `CC/[NH+]=c1\cc2oc3cc(NCCC(=O)NC(C)C(=O)OC)c4ccccc4c3nc-2cc1C` (stereo not drawn), which absorption maximum (in CCO) is on record?
Its absorption maximum is 590 nm.

For `CCCCCCOc1cc(N(CC)CC)ccc1/C=C(\C#N)c1ccc(/C=C/C(=C(C#N)C#N)c2ccc3c(c2)c2ccccc2n3CC)s1`, which absorption maximum (in ClCCl) is on record?
The absorption maximum was 570 nm.

For `CCCCN1c2ccccc2Sc2cc(/C=C\c3cc(=O)oc4ccc(C)cc34)ccc21`, which absorption maximum (in ClC(Cl)Cl) is on record?
Its absorption maximum is 423 nm.

For `COc1ccc(-c2oc3cccc4c5c(-c6ccc(OC)c(OC)c6)/c(=N/S(=O)(=O)C(F)(F)F)oc6cccc(c2c34)c65)cc1OC`, which absorption maximum (in ClC(Cl)Cl) is on record?
The absorption maximum was 485 nm.

For `CCC1=C(C)C2=Cc3c4ccccc4c4n3[B-](c3ccc5cc6ccccc6cc5c3)(Oc3ccccc3-4)[N+]2=C1C` (stereo not drawn), which absorption maximum (in CC#N) is on record?
The absorption maximum was 621 nm.

And the absorption maximum (in CCCCCC)?
The absorption maximum was 626 nm.

And the absorption maximum (in Cc1ccccc1)?
The absorption maximum was 630 nm.

What about the absorption maximum (in ClCCl) of the same molecule?
Its absorption maximum is 627 nm.

Which absorption maximum (in ClC(Cl)Cl) does the source give for `Cc1cc(=O)oc2cc3c(cc12)c1c2ccccc2c2ccccc2c1c1c2ccccc2c2ccccc2c31` here?
The absorption maximum was 386 nm.

With `CCCCN1C(=O)c2cc(Oc3ccc(C(C)(C)C)cc3)c3c4c(Oc5ccc(C(C)(C)C)cc5)cc5c(=O)[nH]/c(=C\c6ccc7ccccc7n6)c6cc(Oc7ccc(C(C)(C)C)cc7)c(c7c(Oc8ccc(C(C)(C)C)cc8)cc(c2c37)C1=O)c4c56` as the molecule, how does the absorption maximum (in ClCCl) read?
The absorption maximum was 626 nm.

For `c1ccc(-c2nc(-c3ccccc3)nc(-c3ccc(-n4c5ccccc5c5cc6c7ccccc7n7c8ccccc8c(c54)c67)cc3)n2)cc1`, which absorption maximum (in Cc1ccccc1) is on record?
Its absorption maximum is 383 nm.

With `CC1=[N+]2C(=C(c3ccc(-c4c5ccccc5c(-c5ccccc5)c5ccccc45)cc3)c3ccc(C)n3[B-]2(F)F)C=C1` as the molecule, how does the absorption maximum (in CC#N) read?
The absorption maximum was 508 nm.

What about the absorption maximum (in CCCCCC) of the same molecule?
Its absorption maximum is 512 nm.

And the absorption maximum (in CCO)?
Its absorption maximum is 511 nm.

And the absorption maximum (in CN(C)C=O)?
Its absorption maximum is 512 nm.

And the absorption maximum (in Cc1ccccc1)?
The absorption maximum was 516 nm.

And the absorption maximum (in ClCCl)?
Its absorption maximum is 513 nm.

With `CCCCCCN1C(=O)c2cccc3c(-c4ccc([N+](=O)[O-])s4)ccc(c23)C1=O` as the molecule, how does the absorption maximum (in ClC(Cl)Cl) read?
The absorption maximum was 363 nm.

Which absorption maximum (in C1CCOC1) does the source give for `Cc1csc2[n+]1[B-](F)(F)OC(c1ccc(N(C)C)cc1)=N2` here?
The absorption maximum was 405 nm.

What about the absorption maximum (in CC#N) of the same molecule?
The absorption maximum was 403 nm.

What about the absorption maximum (in Cc1ccccc1) of the same molecule?
Its absorption maximum is 407 nm.

What about the absorption maximum (in ClCCl) of the same molecule?
Its absorption maximum is 406 nm.

For `c1cc2c3c(c1)ccc1[n+]3[B-]3(Oc4cccc5ccc6[n+](c45)[B-](O2)(O3)n2c-6cc3c4ccccc4c4ccccc4c32)n2c-1cc1c3ccccc3c3ccccc3c12`, which absorption maximum (in ClCCl) is on record?
Its absorption maximum is 472 nm.

What does the source list for `Nc1nc2ccccc2[n+]([O-])n1`?
absorption maximum (in CC#N): 407 nm; absorption maximum (in O): 415 nm

Which absorption maximum (in CC#N) does the source give for `CC1=C(c2ccccc2)C2=Cc3c(-c4ccccc4)c(C)c(C)n3[B-](F)(F)[N+]2=C1C` here?
The absorption maximum was 538 nm.

Which absorption maximum (in Cc1ccccc1) does the source give for `c1ccc2c(c1)CCc1ccccc1N2c1c2ccccc2cc2ccccc12` here?
The absorption maximum was 426 nm.

What does the source list for `CN(C)c1ccc2nc(-c3ccc(C(=O)Nc4ccccc4)cc3)sc2c1`?
absorption maximum (in C1CCCCC1): 387 nm and 384 nm; absorption maximum (in CC#N): 388 nm; absorption maximum (in CC(C)O): 389 nm; absorption maximum (in CO): 389 nm; absorption maximum (in CS(C)=O): 396 nm; absorption maximum (in ClC(Cl)Cl): 383 nm; absorption maximum (in c1ccccc1): 392 nm
